A word on the Ki: it is the equilibrium dissociation constant of an inhibitor or competing ligand from its target. Usually Vd stands for the apparent volume that relates the amount in the body to the concentration in plasma or blood. Read a high Vd as extensive tissue distribution. Usually clearance stands for a measure of how efficiently the substance is removed, as volume per time. A lower clearance goes with a low capacity for elimination. For orientation: bioavailability means the share of a dose that reaches the circulation, judged against a reference dose that is usually intravenous. High values mean much systemic uptake, low ones little systemic uptake.

Molecules are shown by their SMILES.

Data set [1] concerns the target T1, Oxytocin receptor (Homo sapiens, UniProt P30559).
T1 sequence (P30559 whole entry): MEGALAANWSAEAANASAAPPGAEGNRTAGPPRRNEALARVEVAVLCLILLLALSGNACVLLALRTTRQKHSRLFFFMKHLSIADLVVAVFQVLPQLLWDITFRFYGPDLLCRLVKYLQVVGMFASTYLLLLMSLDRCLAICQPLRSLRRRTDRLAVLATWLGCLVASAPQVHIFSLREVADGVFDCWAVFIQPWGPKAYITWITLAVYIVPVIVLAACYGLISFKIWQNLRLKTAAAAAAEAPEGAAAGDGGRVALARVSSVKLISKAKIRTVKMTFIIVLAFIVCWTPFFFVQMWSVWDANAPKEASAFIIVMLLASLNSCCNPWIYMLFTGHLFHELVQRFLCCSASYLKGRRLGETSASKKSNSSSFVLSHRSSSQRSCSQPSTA
The data set is described as follows: Inhibition of binding of [3H]oxytocin with human oxytocin receptor.

The nature of data set [2]: Volume distribution was determined. The data set is classed as ADME, organism-based, Canis lupus familiaris. As to conditions: dog, in vivo.
Data set [3] can be described thus: Plasma clearance was determined. It is filed as ADME, organism-based, Canis lupus familiaris. As to conditions: dog.
Data set [4] can be described thus: Bioavailability. It is filed as ADME, organism-based, Canis lupus familiaris. As to conditions: dog, in vivo.

For the compound `CC(=O)NC1N=C(c2ccccc2)c2ccccc2N(CC(=O)NCCc2cccc(Cl)c2)C1=O` (centres undefined), the inhibitory constant (Ki) in data set [1] was 100 nM. The same compound registered a volume of distribution (Vd) in data set [2] of 0.4 L/kg. The compound also registered a clearance in data set [3] of 6 mL/min/kg.
As to `CC(=O)CCCC(=O)NC1N=C(C)c2ccccc2N(CC(=O)N[C@@H](Cc2ccc(Cl)c(Cl)c2)C(N)=O)C1=O` (some centres undefined), the affinity in data set [1] corresponds to a Ki of 200 nM.
Still for that read-out and setting: the value for `CC(=O)NC1N=C(c2ccccc2)c2ccccc2N(CC(=O)NCCc2ccc(Cl)c(Cl)c2)C1=O` (centres undefined) was 100 nM.
Regarding `CC(=O)CCCC(=O)NC1N=C(c2ccccc2)c2ccccc2N(CC(=O)NC2CCc3ccccc3C2)C1=O` (centres undefined), in data set [1], the Ki was greater than 5010 nM. Moreover, the Vd in data set [2] turned out to be 0.2 L/kg. In data set [3], this compound had a clearance of 0.3 mL/min/kg.
Compound `CC(=O)CCCC(=O)NC1N=C(c2ccccc2)c2ccccc2N(CC(=O)NCCCc2cccc(Cl)c2)C1=O` (centres undefined) gave a Ki in data set [1] of 100 nM.
On the same count and under the same terms, next, `CC(=O)CCCC(=O)NC1N=C(c2ccccc2)c2ccccc2N(CC(=O)NCCc2cccc3ccccc23)C1=O` (centres undefined): 15.8 nM.
The same measure, in the same setting: next, `CC(=O)NC1N=C(c2ccccc2)c2ccccc2N(CC(=O)N[C@@H](Cc2ccc(Cl)c(Cl)c2)C(N)=O)C1=O` (some centres undefined): 25.1 nM; `CC(=O)NC1N=C(c2ccccc2)c2ccccc2N(CC(=O)NCCc2cccc3ccccc23)C1=O` (centres undefined): 100 nM.
The compound `CC(=O)CCCC(=O)NC1N=C(c2ccccc2)c2ccccc2N(CC(=O)NCCc2ccccc2Cl)C1=O` (centres undefined) gave an inhibition constant Ki in data set [1] of 200 nM.
Still for that read-out and setting: the value for `CC(=O)CCCC(=O)NC1N=C(c2ccccc2)c2ccccc2N(CC(=O)NCCc2ccccc2)C1=O` (centres undefined) was 316 nM.
`NC(=O)[C@H](Cc1ccc(Cl)c(Cl)c1)NC(=O)CN1C(=O)C(NC(=O)CN2CCOCC2)N=C(c2ccccc2)c2ccccc21` (some centres undefined): the Ki in data set [1] was 39.8 nM. For the same compound, in data set [2], the Vd was found to be 2.8 L/kg. In addition, the clearance in data set [3] amounted to 33 mL/min/kg.
In turn, `CS(=O)(=O)NC1N=C(c2ccccc2)c2ccccc2N(CC(=O)N[C@@H](Cc2ccc(Cl)c(Cl)c2)C(N)=O)C1=O` (some centres undefined) gave an inhibitory constant (Ki) in data set [1] of 501 nM.
Same read-out and setting: next, `CC(=O)CCCC(=O)NC1N=C(C2CCCCC2)c2ccccc2N(CC(=O)N[C@@H](Cc2ccc(Cl)c(Cl)c2)C(N)=O)C1=O` (some centres undefined): 31.6 nM.
The same measure, in the same setting: the value for `CC(=O)CCCC(=O)NC1N=C(c2ccccc2)c2ccccc2N(CC(=O)N[C@@H](CC2CCCCC2)C(N)=O)C1=O` (some centres undefined) was 794 nM.
`CC(=O)CCCC(=O)NC1N=C(Cn2ccnc2)c2ccccc2N(CC(=O)N[C@@H](Cc2ccc(Cl)c(Cl)c2)C(N)=O)C1=O` (some centres undefined): affinity in data set [1] was put at a Ki of 794 nM.
Take `CC(=O)CCCC(=O)NC1N=C(c2ccccc2)c2ccccc2N(CC(=O)NCCc2cccc(Cl)c2)C1=O` (centres undefined): in data set [1], the inhibition constant Ki was 20 nM. Besides, in data set [2], the volume of distribution (Vd) was 0.3 L/kg. The clearance in data set [3] amounted to 3 mL/min/kg.
In data set [1], `CC(=O)NC1N=C(c2ccccc2)c2ccccc2N(CC(=O)NCc2nc(-c3ccccc3)no2)C1=O` (centres undefined) gave a Ki of 794 nM.
As to `CC(=O)CCCC(=O)NC1N=C(c2ccccc2)c2ccccc2N(CC(=O)NCCc2ccc(Cl)c(Cl)c2)C1=O` (centres undefined), the inhibition constant (Ki) in data set [1] was 25.1 nM. Besides, in data set [4], the bioavailability came out at 12%. Moreover, the distribution volume (Vd) in data set [2] amounted to 0.2 L/kg. The compound also came in with a clearance in data set [3] of 4 mL/min/kg.
For the compound `CC(=O)CCCC(=O)NC1N=C(c2ccccc2)c2ccccc2N(CC(=O)N[C@@H](Cc2ccc(Cl)c(Cl)c2)C(N)=O)C1=O` (some centres undefined), the affinity in data set [1], expressed as Ki, was 7.94 nM. For the same compound, in data set [4], the bioavailability was greater than 20%. In addition, in data set [2], the volume of distribution (Vd) is 0.6 L/kg. Also, the clearance in data set [3] amounted to 62 mL/min/kg.
For `CC(=O)CCCC(=O)NC1N=C(c2ccccc2)c2ccccc2N(CC(=O)NCCc2ccc3ccccc3c2)C1=O` (centres undefined), the Ki in data set [1] was 15.8 nM.
The same measure, in the same setting: the value for `CC(=O)NC1N=C(c2ccccc2)c2ccccc2N(CC(=O)NCc2nc(-c3ccc(Cl)c(Cl)c3)cs2)C1=O` (centres undefined) was greater than 5010 nM; that for `CC(=O)CCCC(=O)NC1N=C(c2ccccc2)c2ccccc2N(CC(=O)NC2=NOC(c3ccccc3)C2)C1=O` (centres undefined) was greater than 3160 nM.
For `CC(=O)NC1N=C(c2ccccc2)c2ccccc2N(CC(=O)N[C@H](Cc2ccc(Cl)c(Cl)c2)C(N)=O)C1=O` (some centres undefined), in data set [1], affinity was put at a Ki of 794 nM.
As to `CC(=O)NC1N=C(c2ccccc2)c2ccccc2N(CC(=O)N(C)CCc2cccc(Cl)c2)C1=O` (centres undefined), affinity in data set [1] was put at a Ki of 1580 nM.
Still for that read-out and setting: the value for `CC(=O)CCCC(=O)NC1N=C(c2ccccc2)c2ccccc2N(CC(=O)N[C@@H](Cc2ccc(F)cc2)C(N)=O)C1=O` (some centres undefined) was 79.4 nM.

Source of the values: ChEMBL document CHEMBL1134064, “Structure-activity relationship investigations of a potent and selective benzodiazepine oxytocin antagonist” (Bioorg Med Chem Lett, 2001).
